Experimental data from US20050239808A1, “Active substances for the treatment, diagnosis and prophylaxis of diseases in which abnormal protein structures occur” (priority 2002, published 2005).

How the values were obtained:
Aβ(1-42) [1] = target: T1, Aβ(1-42) (Homo sapiens, UniProt P05067); test: Aβ(1-42) aggregation assay by Fluorescence Correlation Spectroscopy (FCS); type: biochemical; conditions: 5.5-11 μM Aβ(1-42) + 22 nM oregon green-labelled Aβ(1-42), 10 nM of aminopyrazole (referring to the initial solution), 5-10% DMSO, 10 mM sodium phosphate buffer pH 7.2, room temperature, 12-72 hours
T1 construct: Aβ(1-42) was used as the model molecule in the aggregation experiments

[2] = Solubility of aminopyrazoles in DMSO and after dilution in sodium phosphate buffer
Procedure: These aminopyrazoles were dissolved in 100% DMSO. […] In order to eliminate particles, these dissolved solutions of aminopyrazoles were resolved in 10 mM of sodium phosphate buffer pH 7.2 to a final DMSO concentration of 5%. They were then filtered with Microcon YM 10 tubes.

Aβ(1-42) [3] = target: T1, Aβ(1-42); type: biochemical; conditions: FIG. 10; 32.8 μM and 16.4 μM Aβ(1-42), 20 mM AmpOx, 6 h at room temperature, 6% DMSO, 100,000 g centrifugation
Procedure: Aβ(1-42) solutions were incubated under various conditions and their aggregation was analysed by a 100,000 g spin in an ultracentrifuge.
The Aβ(1-42) dissolved in 100% DMSO was diluted to a concentration of 11 μM in 10 mM of sodium phosphate buffer pH 7.2. All samples contained 22 nM of oregon green labelled Aβ(1-42) and were incubated for 48 hours at room temperature in 10% DMSO.
Aβ(1-42) was dissolved in 100% DMSO and diluted to a concentration of 32.8 μM and 16.4 μM in 10 mM of sodium phosphate buffer pH 7.2. The protein was incubated at room temperature for 6 h in 6% DMSO with and without 20 mM AmpOx.

T1 sequence (P05067 672-713 limits assumed): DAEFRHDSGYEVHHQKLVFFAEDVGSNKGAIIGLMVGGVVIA

SMILES | inhibition of Aβ(1-42) aggregation (Aβ(1-42) [1]) | solubility in 100% DMSO [2] | distribution of Aβ(1-42) between supernatant (S) and pellet (P), compared with the Trimer result (Aβ(1-42) [3])
Cc1cc(NC(=O)C(=O)Nc2cc(C)[nH]n2)n[nH]1 [AmpOx, N,N′-Bis-(−5-methyl-1H-pyrazole-3-yl)-oxalic acid diamide] | able to disturb or inhibit the aggregation of Aβ(1-42) | not completely soluble | almost identical results
COC(=O)c1cc(NC(=O)c2cc(NC(=O)c3cc([N+](=O)[O-])[nH]n3)[nH]n2)[nH]n1 [Trimer] | able to disturb or inhibit the aggregation of Aβ(1-42) |  | 
